Each structure is given as a SMILES string. Values after ≈ are worked out from the molar mass of the structure shown.

The source of these data is patent US12577219B2, “Macrolide brefeldin a ester derivatives and use thereof” (OCEAN UNIVERSITY OF CHINA, priority 2019, dated 2026).

Data set [1] has as its system Human cervical cancer Hela cells. Kind of data set: Cell proliferation assay (CCK-8). It counts as cell-based. As to conditions: Homo sapiens, 72 h. From the text:
(§1) CCK-8 method: The CCK-8 method is a highly sensitive, non-radioactive colorimetric assay for the determination of the number of viable cells in cell proliferation or cytotoxicity assays. The orange formazan dye produced by the bioreduction of CCK-8 by intracellular dehydrogenase is soluble in the cell culture medium, and the amount of formazan dye produced is proportional to the number of living cells. The kit used in this method is the tetrazolium salt-WST-8 (2-(2-methoxy-4-nitrophenyl)-3-(4-nitrophenyl)-5-(2,4-disulfophenyl)-2H-tetrazolium monosodium salt) developed by Dojindo Chemical Research Institute (Dojindo), which is capable of being reduced to a water-soluble formazan dye in the presence of the electronic carrier 1-Methoxy PMS.
(§2) Human cervical cancer Hela cells, pancreatic cancer PANC-1cells, esophageal cancer Eca-109 cells, human leukemia K562 cells, human lung cancer A549 cells, human liver cancer HepG2 cells, human gastric cancer MKN-45 cells, human breast cancer MCF7 cells were cultured in DMEM medium containing 10% FBS (fetal bovine serum), 100 U/mL penicillin and 100 μg/ml streptomycin. Hepatocellular carcinoma cells Bel-7402 were cultured in RPMI-1640 medium containing 10% FBS (fetal bovine serum), 100 U/ml penicillin and 100 μg/ml streptomycin. All cells were placed in a cell culture incubator at 37° C. with 5% CO2. Cells fluid was changed every 3-5 days, and after 80% cell fusion, trypsin digestion and passaging were performed to keep the cells in good logarithmic growth phase.
(§3) All the samples to be tested were dissolved in DMSO.
(§4) Cells in logarithmic growth phase were inoculated in 96-well plates with 5000 cells/well respectively, and after 24 h of incubation, samples were added (final concentrations as shown in the table), and biplicate wells were set up for each sample. The amount of solvent of DMSO was not higher than 2%. After 72 h, 10 μL of CCK-8 solution was added to each well and incubated for 1.5˜3 h at 37° C. The OD value at 450 nm was measured on an plate reader. Inhibition rate (%)=(1−[(OD450 dosed well−OD450 blank well)/(OD450 control well−OD450 blank well)])×100%
(§5) The fitted IC50 values were calculated using the log (inhibitor) vs. response—Variable slop analysis method in GraphPad Prism software.

The subject of data set [2] is human breast cancer MCF7 cells. Kind of data set: Cell proliferation assay (CCK-8). Conditions: Homo sapiens, MCF7, 72 h. Format: cell-based.
Source text: as §1, §2, §3, §4, §5

Data set [3] relates to human gastric cancer MKN-45 cells. Kind of data set: Cell proliferation assay (CCK-8). It counts as cell-based. Conditions: Homo sapiens, MKN-45, 72 h.
Source text: as §1, §2, §3, §4, §5

The subject of data set [4] is human leukemia K562 cells. Kind of data set: Cell proliferation assay (CCK-8). Format: cell-based. As to conditions: Homo sapiens, K562, 72 h.
Source text: as §1, §2, §3, §4, §5

The test system of data set [5] is human liver cancer HepG2 cells. Kind of data set: Cell proliferation assay (CCK-8). Format: cell-based. As to conditions: Homo sapiens, HepG2, 72 h.
Source text: as §1, §2, §3, §4, §5

Data set [6] concerns human lung cancer A549 cells. As to the kind of experiment: Cell proliferation assay (CCK-8). It counts as cell-based. Conditions: Homo sapiens, A549, 72 h.
Source text: as §1, §2, §3, §4, §5

In data set [7] the test system is esophageal cancer Eca-109 cells. As to the kind of experiment: Cell proliferation assay (CCK-8). As to conditions: Homo sapiens, Eca-109, 72 h. It counts as cell-based, human.
Source text: as §1, §2, §3, §4, §5

Data set [8] concerns pancreatic cancer PANC-1cells. As to the kind of experiment: Cell proliferation assay (CCK-8). Format: cell-based, human. Conditions: Homo sapiens, PANC-1, 72 h.
Source text: as §1, §2, §3, §4, §5

The nature of data set [9]: physchem. As to conditions: 37 °C, thermodynamic from solid, x ± s, n = 3.
Method: The term “solubility” refers to the mass of solute dissolved when a solid substance reaches saturation state in 100 g solvent at a certain temperature.
Methods: Excess BFA and the compounds disclosed herein were added to 10 mL of three solvents, methanol, acetone and 5% DMSO+95% H2O, respectively, and shaken on a shaker at 37° C. at 100 r/min for 24 h. After 24 h, the samples were centrifuged at 15,000 r/min for 15 min to remove the undissolved compounds. The supernatant was filtered using a 0.45 μm membrane filter. The supernatant was appropriately diluted with methanol and contents of the compounds were determined by HPLC method to calculate the solubility.

With `C[C@H]1CCC/C=C/[C@@H]2C[C@H](OC(=O)/C=C/c3ccccc3)C[C@H]2[C@H](O)/C=C/C(=O)O1` [Compound A], the concentration for half-maximal inhibition (IC50) was in the range of 1000 to 10000 nM in data set [1]; 100 to 1000 nM in data set [2]; 1000 to 10000 nM in data set [3]; 100 to 1000 nM in data set [4]; 1000 to 10000 nM in data set [5]; 1000 to 10000 nM in [6]. Also, the IC50 in [7] fell in the range of 1000 to 10000 nM; in [8], 100 to 1000 nM. Moreover, the solubility at 24 h in data set [9] (aqueous with cosolvent or surfactant or cyclodextrin, 5% DMSO + 95% H2O) worked out at 220 ± 130 µg/mL; in data set [9] (organic solvent or mixture, Acetone), 9460 ± 1260 µg/mL (≈ 23 mM); in data set [9] (organic solvent or mixture, Methanol), 9480 ± 1010 µg/mL (≈ 23.1 mM).
